According to US20110229411A1, “USE OF P2X7 PATHWAY FOR ASSESSING THE SENSITIVITY OF A SUBJECT TO A CANCER TREATMENT” (INSTITUT GUSTAVE ROUSSY, priority 2008, published 2011):

Assays:
CT26 colon cancer cells = test: ATP assays on doxorubicin-treated tumor cells; format: cell-based, mouse; details: CT26, doxorubicin 20 μM
Procedure: FIG. 3: Identification of AT P release as a limiting factor of anti-cancer vaccination by dying CT 26 cells. FIG. 3a-b Idem as in FIGS. 1a and b, but using the mouse colon cancer CT26 exposed to doxorubicin. Data of one representative experiment out of three are depicted. FIG. 3. c-d. […] Mice were immunized with PBS or dying CT26 tumor cells. Dying CT26 were first treated with doxorubicin for 24 hours and were then incubated with antimycin A/deoxyglucose (A/D) for 20 min. Cells were washed after A/D exposure and before subcutaneous inoculation (c). Alternatively, dying CT26 were inoculated alone or together with oxiATP (d). Seven days later, mice (15 per group in a total of 3 distinct experiments) were inoculated with live syngeneic tumor cells and tumor growth was monitored. * p<0.05.
Plates were read in a Fluostar luminometer (BMG Labtech).

CT26 cells = test: Cell death induction for vaccination, FACS analysis of Annexin V+ DAPI+ cells; format: cell-based, mouse; details: CT26, 20 μM doxorubicin, 24 hours
Procedure: Anti cancer vaccination was assessed using a previously described setting (Casares et al., 2005; Obeid et al., 2007). CT26 cells were cultured with either PBS or 20 μM doxorubicin, and MCA205 with either PBS or 1 μM mitoxantrone for 24 h. All these treatments led to ˜50% of Annexin V^+ DAPI^+ cells, as assessed by FACS analysis at 24 hours. After careful washes, cells were resuspended in sterile PBS. CT26 cells were incubated in the presence or in the absence of antimycin A and deoxyglucose (2 μg/ml and 30 mM, respectively) for 20 min, or in the presence or in the absence of Oxi-ATP ([…]). After 3 washes, 3×10^6 dying CT26 cells (or 3×10^5 MCA205 cells) were injected subcutaneously into the left flank of mice. In some experiments, 100 μg of IL-1Ra (Anakinra) was injected along with the dying cells. Seven days later, mice were rechallenged into the right flank with 5×10^5 live CT26 cells (or, alternatively, 3.10^4 live MCA205 cells). Tumor growth was then monitored weekly.

COc1cccc2c1C(=O)c1c(O)c3c(c(O)c1C2=O)C[C@@](O)(C(=O)CO)C[C@@H]3O[C@H]1C[C@H](N)[C@H](O)[C@H](C)O1 [doxorubicin]
release of ATP (CT26 colon cancer cells): released ATP
Annexin V+ DAPI+ cells (CT26 cells): ~50%
